These molecules were tested on HEK293 cells (assay: Preliminary screening as mRNA vectors, EGFP mRNA transfection of HEK293 cells). Conditions: EGFP mRNA 50 ng per well, 96-well plates; percentage of GFP fluorescent cells relative to total number of cells (Hoechst).
Format: cell-based
Procedure, shortened: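 Screening format: EGFP mRNA transfection (50 ng/well) into HEK293 in 10% FBS-supplemented DMEM. Percent green fluorescent cells, normalised to Hoechst nuclear count, gave the value; Lipofectamine2000 was the reference transfectant.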
For `CCCCCCCCCCCCSc1nc(NCCN2CCCC2)nc(SCCCCCCCC)n1` [Compound D3S8S12], the “Absolute mRNA transfection efficiency in HEK293 cells” value (“Absolute mRNA transfection efficiency” for short) was 3.5%.
`CCCCCCCCCSc1nc(NCCCCCC)nc(NCCN2CCCC2)n1` [Compound D3S9N6] was tested, and the “Absolute mRNA transfection efficiency” value was 0.2%.
For `CCCCCCCCCSc1nc(NCCCCCCC)nc(NCCN2CCCC2)n1` [Compound D3S9N7], the “Absolute mRNA transfection efficiency” value was 1.4%.
With `CCCCCCCCCSc1nc(NCCCCCCCC)nc(NCCN2CCCC2)n1` [Compound D3S9N8] the “Absolute mRNA transfection efficiency” value was 10.4%.
In the case of `CCCCCCCCCNc1nc(NCCN2CCCC2)nc(SCCCCCCCCC)n1` [Compound D3S9N9], the “Absolute mRNA transfection efficiency” value is reported as 15.4%.
With `CCCCCCCCCCCNc1nc(NCCN2CCCC2)nc(SCCCCCCCCC)n1` [Compound D3S9N11] the “Absolute mRNA transfection efficiency” value was 47.8%.
With `CCCCCCCCCCCCNc1nc(NCCN2CCCC2)nc(SCCCCCCCCC)n1` [Compound D3S9N12] the “Absolute mRNA transfection efficiency” value was 49.6%.
With `CCCCCCCCCCCCCNc1nc(NCCN2CCCC2)nc(SCCCCCCCCC)n1` [Compound D3S9N13] the “Absolute mRNA transfection efficiency” value was 58.2%.
With `CCCCCCCCCCCCCCCNc1nc(NCCN2CCCC2)nc(SCCCCCCCCC)n1` [Compound D3S9N15] the “Absolute mRNA transfection efficiency” value was 67.9%.
With `CCCCCCCCCCCCCCCCNc1nc(NCCN2CCCC2)nc(SCCCCCCCCC)n1` [Compound D3S9N16] the “Absolute mRNA transfection efficiency” value was 50.3%.
`CCCCCCCCCCCCCCCCCCNc1nc(NCCN2CCCC2)nc(SCCCCCCCCC)n1` [Compound D3S9N18] was tested, and the “Absolute mRNA transfection efficiency” value was 26.7%.
For `CCCCCCCCCCSc1nc(NCCCCCC)nc(NCCN2CCCC2)n1` [Compound D3S10N6], the “Absolute mRNA transfection efficiency” value was 0.4%.
For `CCCCCCCCCCSc1nc(NCCCCCCC)nc(NCCN2CCCC2)n1` [Compound D3S10N7], the “Absolute mRNA transfection efficiency” value was 1.4%.
In the case of `CCCCCCCCCCSc1nc(NCCCCCCCC)nc(NCCN2CCCC2)n1` [Compound D3S10N8], the “Absolute mRNA transfection efficiency” value is reported as 0.4%.
For `CCCCCCCCCCSc1nc(NCCCCCCCCC)nc(NCCN2CCCC2)n1` [Compound D3S10N9], the “Absolute mRNA transfection efficiency” value was 2.7%.
`CCCCCCCCCCCNc1nc(NCCN2CCCC2)nc(SCCCCCCCCCC)n1` [Compound D3S10N11] was tested, and the “Absolute mRNA transfection efficiency” value was 17.1%.
With `CCCCCCCCCCCCNc1nc(NCCN2CCCC2)nc(SCCCCCCCCCC)n1` [Compound D3S10N12] the “Absolute mRNA transfection efficiency” value was 19.1%.
For `CCCCCCCCCCCCCNc1nc(NCCN2CCCC2)nc(SCCCCCCCCCC)n1` [Compound D3S10N13], the “Absolute mRNA transfection efficiency” value was 35.0%.
In the case of `CCCCCCCCCCCCCCCNc1nc(NCCN2CCCC2)nc(SCCCCCCCCCC)n1` [Compound D3S10N15], the “Absolute mRNA transfection efficiency” value is reported as 57.6%.
With `CCCCCCCCCCCCCCCCNc1nc(NCCN2CCCC2)nc(SCCCCCCCCCC)n1` [Compound D3S10N16] the “Absolute mRNA transfection efficiency” value was 56.7%.
`CCCCCCCCCCCCCCCCCCNc1nc(NCCN2CCCC2)nc(SCCCCCCCCCC)n1` [Compound D3S10N18] was tested, and the “Absolute mRNA transfection efficiency” value was 59.6%.
In the case of `CCCCCCCCCCCSc1nc(NCCCCCC)nc(NCCN2CCCC2)n1` [Compound D3S11N6], the “Absolute mRNA transfection efficiency” value is reported as 18.1%.
For `CCCCCCCCCCCSc1nc(NCCCCCCC)nc(NCCN2CCCC2)n1` [Compound D3S11N7], the “Absolute mRNA transfection efficiency” value was 8.0%.
In the case of `CCCCCCCCCCCSc1nc(NCCCCCCCC)nc(NCCN2CCCC2)n1` [Compound D3S11N8], the “Absolute mRNA transfection efficiency” value is reported as 31.8%.
In the case of `CCCCCCCCCCCSc1nc(NCCCCCCCCC)nc(NCCN2CCCC2)n1` [Compound D3S11N9], the “Absolute mRNA transfection efficiency” value is reported as 24.5%.
`CCCCCCCCCCCNc1nc(NCCN2CCCC2)nc(SCCCCCCCCCCC)n1` [Compound D3S11N11] was tested, and the “Absolute mRNA transfection efficiency” value was 33.5%.
`CCCCCCCCCCCCNc1nc(NCCN2CCCC2)nc(SCCCCCCCCCCC)n1` [Compound D3S11N12] was tested, and the “Absolute mRNA transfection efficiency” value was 40.5%.
`CCCCCCCCCCCCCNc1nc(NCCN2CCCC2)nc(SCCCCCCCCCCC)n1` [Compound D3S11N13] was tested, and the “Absolute mRNA transfection efficiency” value was 25.9%.
For `CCCCCCCCCCCCCCCNc1nc(NCCN2CCCC2)nc(SCCCCCCCCCCC)n1` [Compound D3S11N15], the “Absolute mRNA transfection efficiency” value was 31.3%.
With `CCCCCCCCCCCCCCCCNc1nc(NCCN2CCCC2)nc(SCCCCCCCCCCC)n1` [Compound D3S11N16] the “Absolute mRNA transfection efficiency” value was 15.7%.
`CCCCCCCCCCCCCCCCCCNc1nc(NCCN2CCCC2)nc(SCCCCCCCCCCC)n1` [Compound D3S11N18] was tested, and the “Absolute mRNA transfection efficiency” value was 40.6%.
In the case of `CCCCCCCCCCCCSc1nc(NCCCCCC)nc(NCCN2CCCC2)n1` [Compound D3S12N6], the “Absolute mRNA transfection efficiency” value is reported as 0.0%.
For `CCCCCCCCCCCCSc1nc(NCCCCCCC)nc(NCCN2CCCC2)n1` [Compound D3S12N7], the “Absolute mRNA transfection efficiency” value was 9.2%.
`CCCCCCCCCCCCSc1nc(NCCCCCCCC)nc(NCCN2CCCC2)n1` [Compound D3S12N8] was tested, and the “Absolute mRNA transfection efficiency” value was 12.3%.
With `CCCCCCCCCCCCSc1nc(NCCCCCCCCC)nc(NCCN2CCCC2)n1` [Compound D3S12N9] the “Absolute mRNA transfection efficiency” value was 39.9%.
For `CCCCCCCCCCCCSc1nc(NCCCCCCCCCCC)nc(NCCN2CCCC2)n1` [Compound D3S12N11], the “Absolute mRNA transfection efficiency” value was 21.2%.
In the case of `CCCCCCCCCCCCNc1nc(NCCN2CCCC2)nc(SCCCCCCCCCCCC)n1` [Compound D3S12N12], the “Absolute mRNA transfection efficiency” value is reported as 10.8%.
`CCCCCCCCCCCCCNc1nc(NCCN2CCCC2)nc(SCCCCCCCCCCCC)n1` [Compound D3S12N13] was tested, and the “Absolute mRNA transfection efficiency” value was 0.3%.
With `CCCCCCCCCCCCCCCNc1nc(NCCN2CCCC2)nc(SCCCCCCCCCCCC)n1` [Compound D3S12N15] the “Absolute mRNA transfection efficiency” value was 1.5%.
With `CCCCCCCCCCCCCCCCNc1nc(NCCN2CCCC2)nc(SCCCCCCCCCCCC)n1` [Compound D3S12N16] the “Absolute mRNA transfection efficiency” value was 1.9%.
In the case of `CCCCCCCCCCCCCCCCCCNc1nc(NCCN2CCCC2)nc(SCCCCCCCCCCCC)n1` [Compound D3S12N18], the “Absolute mRNA transfection efficiency” value is reported as 3.5%.
`CCCCCCCCCCCCCCSc1nc(NCCCCCC)nc(NCCN2CCCC2)n1` [Compound D3S14N6] was tested, and the “Absolute mRNA transfection efficiency” value was 66.7%.
In the case of `CCCCCCCCCCCCCCSc1nc(NCCCCCCC)nc(NCCN2CCCC2)n1` [Compound D3S14N7], the “Absolute mRNA transfection efficiency” value is reported as 64.2%.
In the case of `CCCCCCCCCCCCCCSc1nc(NCCCCCCCC)nc(NCCN2CCCC2)n1` [Compound D3S14N8], the “Absolute mRNA transfection efficiency” value is reported as 55.2%.
In the case of `CCCCCCCCCCCCCCSc1nc(NCCCCCCCCC)nc(NCCN2CCCC2)n1` [Compound D3S14N9], the “Absolute mRNA transfection efficiency” value is reported as 51.6%.
In the case of `CCCCCCCCCCCCCCSc1nc(NCCCCCCCCCCC)nc(NCCN2CCCC2)n1` [Compound D3S14N11], the “Absolute mRNA transfection efficiency” value is reported as 30.9%.
For `CCCCCCCCCCCCCCSc1nc(NCCCCCCCCCCCC)nc(NCCN2CCCC2)n1` [Compound D3S14N12], the “Absolute mRNA transfection efficiency” value was 13.5%.
`CCCCCCCCCCCCCCSc1nc(NCCCCCCCCCCCCC)nc(NCCN2CCCC2)n1` [Compound D3S14N13] was tested, and the “Absolute mRNA transfection efficiency” value was 25.9%.
`CCCCCCCCCCCCCCCNc1nc(NCCN2CCCC2)nc(SCCCCCCCCCCCCCC)n1` [Compound D3S14N15] was tested, and the “Absolute mRNA transfection efficiency” value was 3.6%.
For `CCCCCCCCCCCCCCCCNc1nc(NCCN2CCCC2)nc(SCCCCCCCCCCCCCC)n1` [Compound D3S14N16], the “Absolute mRNA transfection efficiency” value was 1.2%.
In the case of `CCCCCCCCCCCCCCCCCCNc1nc(NCCN2CCCC2)nc(SCCCCCCCCCCCCCC)n1` [Compound D3S14N18], the “Absolute mRNA transfection efficiency” value is reported as 1.5%.
With `CCCCCCCCCCCCCCCSc1nc(NCCCCCC)nc(NCCN2CCCC2)n1` [Compound D3S15N6] the “Absolute mRNA transfection efficiency” value was 33.2%.
`CCCCCCCCCCCCCCCSc1nc(NCCCCCCC)nc(NCCN2CCCC2)n1` [Compound D3S15N7] was tested, and the “Absolute mRNA transfection efficiency” value was 80.8%.
`CCCCCCCCCCCCCCCSc1nc(NCCCCCCCC)nc(NCCN2CCCC2)n1` [Compound D3S15N8] was tested, and the “Absolute mRNA transfection efficiency” value was 17.0%.
With `CCCCCCCCCCCCCCCSc1nc(NCCCCCCCCC)nc(NCCN2CCCC2)n1` [Compound D3S15N9] the “Absolute mRNA transfection efficiency” value was 15.4%.
With `CCCCCCCCCCCCCCCSc1nc(NCCCCCCCCCCC)nc(NCCN2CCCC2)n1` [Compound D3S15N11] the “Absolute mRNA transfection efficiency” value was 23.2%.
`CCCCCCCCCCCCCCCSc1nc(NCCCCCCCCCCCC)nc(NCCN2CCCC2)n1` [Compound D3S15N12] was tested, and the “Absolute mRNA transfection efficiency” value was 7.5%.
For `CCCCCCCCCCCCCCCSc1nc(NCCCCCCCCCCCCC)nc(NCCN2CCCC2)n1` [Compound D3S15N13], the “Absolute mRNA transfection efficiency” value was 3.0%.
With `CCCCCCCCCCCCCCCNc1nc(NCCN2CCCC2)nc(SCCCCCCCCCCCCCCC)n1` [Compound D3S15N15] the “Absolute mRNA transfection efficiency” value was 2.6%.
In the case of `CCCCCCCCCCCCCCCCNc1nc(NCCN2CCCC2)nc(SCCCCCCCCCCCCCCC)n1` [Compound D3S15N16], the “Absolute mRNA transfection efficiency” value is reported as 7.6%.
For `CCCCCCCCCCCCCCCCCCNc1nc(NCCN2CCCC2)nc(SCCCCCCCCCCCCCCC)n1` [Compound D3S15N18], the “Absolute mRNA transfection efficiency” value was 8.5%.
In the case of `CCCCCCCCCCCCCCCCSc1nc(NCCCCCC)nc(NCCN2CCCC2)n1` [Compound D3S16N6], the “Absolute mRNA transfection efficiency” value is reported as 96.0%.
For `CCCCCCCCCCCCCCCCSc1nc(NCCCCCCC)nc(NCCN2CCCC2)n1` [Compound D3S16N7], the “Absolute mRNA transfection efficiency” value was 85.0%.
With `CCCCCCCCCCCCCCCCSc1nc(NCCCCCCCC)nc(NCCN2CCCC2)n1` [Compound D3S16N8] the “Absolute mRNA transfection efficiency” value was 97.7%.
In the case of `CCCCCCCCCCCCCCCCSc1nc(NCCCCCCCCC)nc(NCCN2CCCC2)n1` [Compound D3S16N9], the “Absolute mRNA transfection efficiency” value is reported as 92.8%.
For `CCCCCCCCCCCCCCCCSc1nc(NCCCCCCCCCCC)nc(NCCN2CCCC2)n1` [Compound D3S16N11], the “Absolute mRNA transfection efficiency” value was 73.8%.
With `CCCCCCCCCCCCCCCCSc1nc(NCCCCCCCCCCCC)nc(NCCN2CCCC2)n1` [Compound D3S16N12] the “Absolute mRNA transfection efficiency” value was 1.7%.

Source: US20230123334A1, “AMINO LIPID COMPOUND, PREPARATION METHOD THEREFOR, AND APPLICATION THEREOF” (SHENZHEN SHENXIN BIOTECHNOLOGY CO., LTD., priority 2020, published 2023)
